Laboratory results reported in US20060116375A1, “4-[(2,4-Dichloro-5-methoxyphenyl)amino]-6-alkoxy-7-ethynyl-3-quinolinecarbonitriles for the treatment of ischemic injury” (Wyeth, priority 2004, published 2006).
Values joined by “and” are separate entries in the source; they are usually repeats but may differ in a detail not shown here. Equal values may be shown once.

What was measured:
[1] = molecular target: Recombinant human Src enzyme (Homo sapiens, UniProt P12931); assay: Src kinase assay (LANCE homogeneous FRET); format: biochemical; settings: 100 μM ATP, 70 min at 37° C.; multiple entries = tested multiple times
Chain of Recombinant human Src enzyme (P12931 whole entry): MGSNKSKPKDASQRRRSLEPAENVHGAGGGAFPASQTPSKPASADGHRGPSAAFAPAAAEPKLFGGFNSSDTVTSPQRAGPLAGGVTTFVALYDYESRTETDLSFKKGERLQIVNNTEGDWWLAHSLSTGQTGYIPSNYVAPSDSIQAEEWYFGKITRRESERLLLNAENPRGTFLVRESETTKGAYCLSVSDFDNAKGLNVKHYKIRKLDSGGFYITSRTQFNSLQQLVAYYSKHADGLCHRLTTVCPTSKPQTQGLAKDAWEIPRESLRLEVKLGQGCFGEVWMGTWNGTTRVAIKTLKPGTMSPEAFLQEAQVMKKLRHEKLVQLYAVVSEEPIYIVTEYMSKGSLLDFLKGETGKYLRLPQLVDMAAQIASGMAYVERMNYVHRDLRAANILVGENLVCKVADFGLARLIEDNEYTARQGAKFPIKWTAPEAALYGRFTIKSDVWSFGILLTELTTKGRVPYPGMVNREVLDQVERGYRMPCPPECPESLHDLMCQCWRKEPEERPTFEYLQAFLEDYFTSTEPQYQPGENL
Protocol: Recombinant human Src enzyme was obtained from PanVera (P3044). […] Homogeneous fluorescence resonance energy transfer kinase assays were performed using the europium/APC detection format (LANCE, Perkin Elmer). Src enzyme (10 ng) was mixed with biotinylated peptide (final concentration 2 μM), 50 mM Hepes (pH 7.5), 10 mM MgCl2, 20 ug/ml BSA, 0.001% Brij-35 (Sigma), 100 μM ATP, 1% DMSO. The kinase reaction was incubated for 70 min at 37° C. The reaction was stopped with EDTA at a final concentration of 30 mM EDTA/25 mM Hepes (pH 7.5)/10 μg/ml BSA. The mixture was combined with Eu-labeled anti-phosphotyrosine antibody PT66 (Perkin Elmer, AD0068) and Streptavidin Surelight-APC (Perkin Elmer, CR130-100) in 50 mM Hepes (pH 7.5)/20 μg/ml BSA, and incubated for 30 min according to manufacturer's specifications. Fluorescence intensity at 665 nm was used to monitor the extent of the kinase reaction. Multiple entries for a given compound indicate that it was tested multiple times.

[2] = molecular target: Rat2 fibroblasts stably transformed with v-Src/Hu c-Src fusion gene (Homo sapiens, UniProt P12931, cells depend on it, form not given); assay: Anchorage independent Src-transformed fibroblast proliferation assay; format: cell-based, rat; settings: suspension growth, MTS on Day 5; multiple entries = tested multiple times; read-out: Src cell IC50
Chain of Rat2 fibroblasts stably transformed with v-Src/Hu c-Src fusion gene (P12931 whole entry, change not shown, the tested form may be a part): as the sequence (P12931 whole entry) above
Protocol: Anchorage Independent Src-transformed Fibroblast Proliferation Assay
Rat2 fibroblasts stably transformed with a plasmid containing a CMV promotor controlled v-Src/Hu c-Src fusion gene in which the catalytic domain of human c-Src was inserted in place of the v-Src catalytic domain in the v-Src gene are used for the measurement of src dependent suspension growth. Ultra-low cluster plates (Costar # 3474) are seeded with 10,000 cells per well on Day 1. Alternatively, Ultra-low cluster plates (Costar 3474) treated with Sigmacote (Sigma), rinsed with 70% ethanol, after drying in the hood, are seeded with 5000 cells.

[3] = tested on: rat model of intracerebral hemorrhage; assay: Rat model of intracerebral hemorrhage induced by intrastriatal infusion of collagenase; format: in vivo; settings: measured 24 hours later
Protocol: IV Administration of Example 2 Provides Neuroprotection in the Model of Hemorrhagic Stroke
Example 2 was tested in a rat model of intracerebral hemorrhage induced by intrastriatal infusion of collagenase substantially as described by Rosenberg et al., Stroke, 1990, 20:801. In this model, infusion of collagenase into caudate nucleus leads to proteolytic destruction of collagen in basal lamina of blood vessels and induces intracranial bleeding and edema peaking in 24-48 hours. Example 2 was administered at 4 hours post-induction of hemorrhagic stroke as a single i.v injection at the doses of 10 mg/kg or 30 mg/kg. 24 hours later brain water content was determined as a measure of edema.

[4] = tested on: rat model of transient focal ischemia; assay: Rat model of transient focal ischemia (90 min MCA occlusion, reperfusion 48 hours); format: in vivo, Wistar rats; settings: for reduction in infarct volume as a percent of control: 48 hours post MCA occlusion, statistical error 7-10%; for improved recovery from stroke-induced neurological deficits, as a percent of control: evaluated over 48 hours, statistical error 10-12%
Protocol: IV Administration of Example 2 Provides Neuroprotection in a Model of Transient Focal Ischemia
Example 2 was tested in a rat model of transient focal ischemia. Wistar rats were subjected to a 90 min occlusion of the middle cerebral artery (MCA) using an intraluminal suture approach as described by Longa et al., Stroke 1989, 20:84 followed by reperfusion for 48 hours. Four hours after the initial onset of ischemia, animals received compound of Example 2 as a single i.v. bolus in 5% dextrose, 0.9% lactic acid at pH 4.5-5.0 (3 mg/kg, 10 mg/kg or 30 mg/kg). Following reperfusion, the animals were evaluated over a 48 hour period for neurological function deficit. Infarct size was measured following sacrifice at 48 hours post MCA occlusion.

[5] = tested on: rat model of permanent occlusion of middle cerebral artery; assay: Rat model of permanent occlusion of middle cerebral artery (permanent focal ischemia); format: in vivo
Protocol: IV Administration of Example 2 Provides Neuroprotection and Improves Long-Term Neurological Recovery in a Model of Permanent Focal Ischemia
Example 2 was tested in a rat model of permanent occlusion of middle cerebral artery, without the reperfusion, substantially as described by Chen et al., Stroke, 1986, 17:738. This is a more stringent model than the transient focal ischemia. Two hours following an electrocoagulation of middle cerebral artery, vehicle or Example 2 were administered at 10 mg/kg i.v followed by 3 additional doses of 10 mg/kg iv administered at 4, 24 and 26 hours post-induction of stroke. In one study, volume of infracted brain tissue was evaluated at 48 hour post-stroke. In a second study, animals were subjected to testing of sensori-motor function based on tactile and propioceptive limb placement substantially as described by DeRyck et al., Brain Res. 1992, 573:44 at three day intervals over a timecourse of three weeks following stroke. In the animals treated with Example 2 a statistically significant reduction by 24% of the infarct volume was found at 48 hours post-induction of stroke.

[6] = 10 mg/kg single i.v. bolus 4 hours after onset of ischemia
[7] = 30 mg/kg single i.v. bolus 4 hours after onset of ischemia

| IC50 [1] | GI50 [2] | SMILES | reduction of post-hemorrhagic brain edema (brain water content) ([3]; 10 mg/kg single i.v. injection 4 hours post-induction) [%] | reduction of post-hemorrhagic brain edema (brain water content) ([3]; 30 mg/kg single i.v. injection 4 hours post-induction) [%] | reduction in infarct volume as a percent of control [4, 6] [%] | improved recovery from stroke-induced neurological deficits, as a percent of control [4, 6] [%] | reduction in infarct volume as a percent of control [4, 7] [%] | improved recovery from stroke-induced neurological deficits, as a percent of control [4, 7] [%] | reduction of the infarct volume ([5]; 10 mg/kg i.v. at 2, 4, 24 and 26 hours post-induction of stroke, 48 hours post-stroke) [%] | long-term sensorimotor recovery from neurological deficits (limb placement) ([5]; 10 mg/kg i.v. at 2, 4, 24 and 26 hours post-stroke, tested at three day intervals over three weeks) |
| --- | --- | --- | --- | --- | --- | --- | --- | --- | --- | --- |
| 5.9 nM and 4.8 nM | 435 nM and 605 nM | COc1cc(Nc2c(C#N)cnc3cc(C#CCCN4CCNCC4)c(OC)cc23)c(Cl)cc1Cl [Example 4, 4-[(2,4-Dichloro-5-methoxyphenyl)amino]-6-methoxy-7-(4-Piperazin-1-ylbut-1-ynyl)-3-quinolinecarbonitrile] | – | – | – | – | – | – | – | – |
| 6.5 nM and 2.8 nM | 96 nM and 183 nM and 154 nM and 103 nM | CCOc1cc2c(Nc3cc(OC)c(Cl)cc3Cl)c(C#N)cnc2cc1C#CCCN1CCN(C)CC1 [Example 5, 4-[(2,4-Dichloro-5-methoxyphenyl)amino]-6-ethoxy-7-[4-(4-methylpiperazin-1-yl)but-1-ynyl]-3-quinolinecarbonitrile] | – | – | – | – | – | – | – | – |

Further lines, the molecule ahead of its results:

| SMILES | IC50 [1] | GI50 [2] | reduction of post-hemorrhagic brain edema (brain water content) ([3]; 10 mg/kg single i.v. injection 4 hours post-induction) [%] | reduction of post-hemorrhagic brain edema (brain water content) ([3]; 30 mg/kg single i.v. injection 4 hours post-induction) [%] | reduction in infarct volume as a percent of control [4, 6] [%] | improved recovery from stroke-induced neurological deficits, as a percent of control [4, 6] [%] | reduction in infarct volume as a percent of control [4, 7] [%] | improved recovery from stroke-induced neurological deficits, as a percent of control [4, 7] [%] | reduction of the infarct volume ([5]; 10 mg/kg i.v. at 2, 4, 24 and 26 hours post-induction of stroke, 48 hours post-stroke) [%] | long-term sensorimotor recovery from neurological deficits (limb placement) ([5]; 10 mg/kg i.v. at 2, 4, 24 and 26 hours post-stroke, tested at three day intervals over three weeks) |
| --- | --- | --- | --- | --- | --- | --- | --- | --- | --- | --- |
| COc1cc(Nc2c(C#N)cnc3cc(C#CCCN4CCOCC4)c(OC)cc23)c(Cl)cc1Cl [Example 3, 4-[(2,4-Dichloro-5-methoxyphenyl)amino]-6-methoxy-7-(4-morpholin-4-ylbut-1-ynyl)-3-guinolinecarbonitrile] | 4 nM and 4.1 nM | 206 nM and 183 nM | – | – | – | – | – | – | – | – |
| COc1cc(Nc2c(C#N)cnc3cc(C#CCCN4CCN(C)CC4)c(OC)cc23)c(Cl)cc1Cl [Example 2, 4-[(2,4-Dichloro-5-methoxyphenyl)amino]-6-methoxy-7-[4-(4-methylpiperazin-1-yl)but-1-ynyl]-3-guinolinecarbonitrile] | 3.5 nM and 4.2 nM | 71 nM and 70 nM and 77 nM | 18 | 24 | 32 | 35 | 40 | 53 | 24 | significantly improved long-term sensorimotor recovery |
| COc1cc(Nc2c(C#N)cnc3cc(C#CCCN(C)C)c(OC)cc23)c(Cl)cc1Cl [Example 1, 4-[(2,4-Dichloro-5-methoxyphenyl)amino]-7-[4-(dimethylamino)but-1-ynyl]-6-methoxy-3-guinolinecarbonitrile] | 5 nM and 4.7 nM | 252 nM and 240 nM | – | – | – | – | – | – | – | – |
